# Test system: platelet aggregation (dog platelet-rich plasma)
# Assay: In-vitro platelet aggregation in PRP (ADP-induced, dog)
# Format: cell-based
# Settings: Canis lupus familiaris, ADP 50 um final concentration, at 10^-5 M, read-out: Dog PRP % Inh
# Procedure: IN-VITRO PLATELET AGGREGATION IN PRP
# Healthy male or female dogs were fasted for 8 hours prior to drawing blood; then 30 ml whole blood was collected using a butterfly needle and 30 cc plastic syringe with 3 ml of 0.129M buffered sodium citrate (3.8%). The syringe was rotated carefully as blood was drawn to mix the citrate. Platelet-rich plasma (PRP) was prepared by centrifugation at 975×g for 3.17 minutes at room temperature allowing the centrifuge to coast to a stop without braking. The PRP was removed from the blood with a plastic pipette and placed in a plastic capped, 50 mL Corning conical sterile centrifuge tube which was held at room temperature. Platelet poor plasma (PPP) was prepared by centrifuging the remaining blood at 2000×g for 15 minutes at room temperature allowing the centrifuge to coast to a stop without braking. The PRP was adjusted with PPP to a count of 2-3×10^8 platelets per mL. 400 uL of the PRP preparation and 50 uL of the compounds solution to be tested or saline were preincubated for […] at 37° C. in a […].). 50 uL of adenosine 5' diphosphate (ADP) (50 um final concentration) was added to the cuvettes and the aggregation was monitored for 1 minute. All compounds are tested in duplicate. Results are calculated as follows: Percent of control=[(maximal OD minus initial OD of compound) divided by (maximal OD minus initial OD of control saline)]×100. The % inhibition=100-(percent of control).
# The compounds tested and their median inhibitory concentrations (IC50) are recorded in Table I. IC50 's (dosage at which 50% of platelet aggregation is inhibited) were calculated by linear regression of the dose response curve.
row,SMILES,inhibition at 10 µM [%]
1,"CN=C(NCCC(=O)NCCC(=O)O)Nc1ccc(C(=N)N)cc1 [Example 6, β-[[3-[[[4-(aminoiminomethyl)phenyl]amino]N-methylcarbonylimide]aminopropanoyl]amino]propanoic acid]",5
2,"CC(C)[C@H](NC(=O)Nc1ccc(C(=N)N)cc1)C(=O)NC(CC(=O)O)c1cccnc1 (single isomer, unassigned) [10 (isomer 1)]",9

# Same assay, conditions: Canis lupus familiaris, ADP 50 um final concentration, preincubation at 37° C., aggregation monitored for 1 minute
row,SMILES,IC50 [nM]
1,"C[C@H](CNC(=O)Nc1ccc(C(=N)N)cc1)C(=O)NC(CC(=O)O)c1ccc2c(c1)OCO2 (single isomer, unassigned) [14 (isomer 1)]",2000
2,N=C(N)c1ccc(NC(=O)NCCC(=O)NC(CC(=O)O)c2cccnc2)cc1 (stereo not shown) [Example 2],330
3,N=C(N)c1ccc(NC(=O)NCC(=O)NC(CC(=O)O)c2cccnc2)cc1 (stereo not shown) [Example 4],260
4,"N=C(N)c1ccc(NC(=O)NC(CC(=O)NCCC(=O)O)c2cccnc2)cc1 (stereo not drawn) [Example 12, β-[[3-[[[[4-(aminoiminomethyl)phenyl]amino]-carbonyl]amino](3-pyridine)propanoyl]amino]-propanoic acid]",6000
5,"N=C(N)c1ccc(NC(=S)NCCC(=O)NCCC(=O)O)cc1 [Example 8, β-[[3-[[[4(aminoiminomethyl)phenyl]amino]-thiocarbonyl]aminopropanoyl]amino]propanoic acid]",4900

# From US5624956A, “Urea derivatives useful as platelet aggregation inhibitors” (The Monsanto Company, priority 1995, dated 1997)
